Assay [1] deals with PC-9 (EGFR exon19 E746-A750 deletion). As to the kind of experiment: In vitro growth inhibition (GI50), PC-9. Format: cell-based. To be noted: Homo sapiens; PC-9, EGFR DelE746-A750. An excerpt:
Tumor cell line is an effective cell model for studying the inhibition of tumor cell growth or proliferation in vitro. In the present invention, a representative tumor cell line was selected to determine the cell growth inhibition activity of the present compound. All cell lines used were from ATCC, DSMZ, and the Cell Bank of the Chinese Academy of Sciences. Cell culture conditions and methods were in accordance with the requirements of each cell line. Cells were subcultured in vitro for no more than 3 passages each time, and as required, single-clone purification and identification of cell lines could be carried out.
The cell culture media used were RPMI1640 (Gibco), MEM (Gibco), McCOY'S5A (Gibco), and IMDM (Gibco). The complete medium was prepared by supplement with 5˜20% fetal calf serum (Gibco), 1% double-antibiotics (10000 units/mL penicillin and 10000 units/mL), 2 mM glutamine or 1 mM sodium pyruvate, respectively.
(§1) Human epidermal cancer cell line A431 (EGFR WT, amplification and high expression, from Shanghai Cell Bank of Chinese Academy of Sciences and ATCC), human lung cancer cell line NCI-H292 (EGFR WT, purchased from Shanghai Cell Bank of Chinese Academy of Sciences), NSCLC cell lines PC-9 and HCC827 (EGFR exon19 E746-A750 deletion, two cell lines are sensitive to the first-generation EGFR PTK inhibitor), NSCLC cell line NCI-H1975 (EGFR L858R/T790M and the first-generation EGFR inhibitor resistance, ATCC) were cultured with 1×RPMI1640 complete medium (supplement with 10% FBS), respectively.
(§2) Adherent cells were digested with 0.25% pancreatin-EDTA (Gibco). The suspension cells were collected by centrifugation. The supernatant was discarded and the cell pellet was resuspended and counted. Different cell concentrations (5˜10×10^4 cells/mL) were prepared according to the growth cycle of each cell line and then seeded on a 96-well plate (Corning), 100 μL/well. The cells were incubated overnight at 37° C., 5% CO2. The compounds were added to the cells on the second day with 2 wells in parallel. The final concentration of organic solvent shall not exceed 1%. The cells were continually incubated for 3 to 5 days, and then subjected to MTT assay.
(§3) The compound of the present invention and the control compound were dissolved in DMSO (Sigma) respectively, with the purity of more than 98%. The compound was stored in a concentration of 10 mM at −20° C. and diluted to 2- or 10-fold series prior to use.
Dojindo CCK8 reagent kit was used as MTT assay. THERMO […] FC meter was used as microplate reader.
For adherent cells, culture medium was removed and immediately replaced with the fresh prepared medium which contains 10% CCK8 reagent (100 μL/well). For the suspension cells, CCK8 was directly added to 10% of the final concentration. The cells were continually incubated for 1˜4 h. When a dark yellow color could be observed in the solvent control wells, the absorbance value at OD450 nm was measured and the cell growth rate was calculated according to the following formula: Cell Growth Rate (%)=100*(T−T0)/(C−T0) T=optical density of drug treatment cell well—optical density of blank control well; T0=optical density of cell well before drug treatment—optical density of blank control well; C=optical density of cell well of solvent control group—optical density of blank control well. The concentration value of 50% inhibition of cell growth (GI50) was calculated according to the drug concentration and cell growth rate curve. The experiment was independently repeated 1˜3 times, and subject to biological statistical analysis. 4. Experimental Results
Tumor cell growth inhibition test was performed by selecting representative compounds (compounds 4, 11, 12, 16, 27, 68, 71, 77, 79, 89 and 116 of the present invention). The initial concentration of the compound was 5,000 nM, then it was serially diluted by 2-fold or 10-fold to 0.01 nM. The GI50 value of each test compound was calculated according to the GI50 assay and calculation method. […]

The subject of assay [2] is tumor cells with abnormal expressions of EGFR, HER2/ERBB2, FGFR1, RAS, BRAF, cMET, and ALK genes. As to the kind of experiment: In vitro growth inhibition of different tumor cells (summary over the panel). In kind it is cell-based, human. The settings on record: GI50 value in the micro-molar range.
Excerpt: as §1
Human gastric cancer cell line NCI-N87 (HER2/ErbB2 amp, ATCC), human breast cancer cell line HCC1954 (HER2/ErbB2 amp, ATCC) and ZR-75-30 (HER2/ErbB2 amp, ATCC), human adenocarcinoma cell line AU565 (HER2/ErbB2 amp, ATCC), human lung squamous cell carcinoma cell line NCI-H2170 (HER2/ErbB2 amp, ATCC), human bronchioalveolar adenocarcinoma cell line NCI-H1781 (HER2/ErbB2 Ins G776V,C mutant type, ATCC) were cultured with a 1×RPMI1640 complete medium (10% FBS), respectively. Human lung adenocarcinoma cell line Calu-3 (HER2/ErbB2 amp, ATCC) was cultured with 1×MEM, 10% FBS, 1% double antibody, 1% NEAA (Gibco), 2 mM glutamine and 1 mM sodium pyruvate. The human breast cancer cell line SK-BR-3 (HER2/ErbB2 amp, ATCC) was cultured with a McCOY'S5A complete medium (10% FBS).
The human gastric cancer cell line MKN-45 (c-MET amp, ATCC) and the non-small cell lung cancer cell line NCI-H1993 (c-MET amp, ATCC) were cultured in complete medium comprising 1×RPMI1640 and 10% FBS, respectively.
Human non-small cell lung cancer cell line NCI-H2228 (expressing EML4-ALK fusion gene, ATCC) and human anaplastic large cell lymphoma cell line Karpas-299 (expressing NPM-ALK fusion gene, ATCC) were cultured in complete medium comprising 1×RPMI1640 (10% FBS), respectively. Neuroblastoma cell line SH-SY5Y (expressing ALK F1174L mutant protein, Shanghai Cell Bank, Chinese Academy of Sciences) was cultured in MEM complete medium (1×MEM, 10% FBS, 1% NEAA, 1 mM sodium pyruvate).
Human non-small cell lung cancer cell NCI-H1581 (FGFR1 amp, ATCC) is an FGFR1 gene amplified/overexpressed tumor cell line. It was cultured in complete medium comprising 1×RPMI1640 with 10% FBS.
Human large cell lung cancer cell NCI-H460 (KRAS […] mutant type, ATCC), human non-small cell lung cancer cell line H1299 (NRAS Q61K mutant type, ATCC), human melanoma cell line A375 (BRAF V600E mutant type, Shanghai Cell Bank of Chinese Academy of Sciences), human colon cancer cell line HCT116 (KRAS G13D mutant type, Shanghai Cell Bank, Chinese Academy of Sciences) were cultured in a complete medium of 1×RPMI1640 (10% FBS), respectively. Human non-small cell lung cancer cells A549 (KRAS G12S mutant type, Shanghai Cell Bank, Chinese Academy of Sciences) were cultured in a complete medium of 1× Ham's supplemented with 10% FBS, 1% double antibody, and 2 mM glutamine.
as §2, §3
Dojindo CCK8 reagent kit was used as MTT assay. THERMO […] FC meter was used as microplate reader. […]

Turning to `CC(C)(C)c1cc(NC(=O)Nc2ccc(-n3cnc4cc(O)ccc43)cc2)no1` [Compound 4, 1-(5-tert-butyl-isoxazol-3-yl)-3-[4-(5-hydroxy-benzimidazol-1-yl)-phenyl]-urea], in assay [1], the GI50 (usually the concentration at which growth is held to half of that of the control) was > 2500 nM.

Turning to `CC(C)(C)c1cc(NC(=O)Nc2ccc(-n3cnc4cc(OCCO)ccc43)cc2)no1` [Compound 11, 1-(5-tert-butyl-isoxazol-3-yl)-3-{4-[5-(2-hydroxy-ethoxyl)-benzimidazol-1-yl]-phenyl]-urea], in assay [1], the GI50 was > 2500 nM.

On to `CC(C)(C)c1cc(NC(=O)Nc2ccc(-n3cnc4cc(OCCN5CCOCC5)ccc43)cc2)no1` [Compound 16, 1-(5-tert-butyl-isoxazol-3-yl)-3-{4-[5-(2-morpholin-4-yl-ethoxyl)-benzimidazol-1-yl]-phenyl}-urea], for which the GI50 in assay [1] is > 2500 nM. Besides, the “inhibition effect on growth of tumor cells with abnormal expressions of EGFR, HER2/ERBB2, FGFR1, RAS, BRAF, cMET, and ALK genes” value in assay [2] was “no significant inhibition effect”.

For `CC(C)(C)c1cc(NC(=O)Nc2ccc(-n3cnc4ccc(OCCN5CCOCC5)cc43)cc2)no1` [Compound 27, 1-(5-tert-butyl-isoxazol-3-yl)-3-{4-[6-(2morpholin-4-yl-ethoxyl)-benzimidazol-1-yl]-phenyl}-urea], the GI50 in assay [1] is > 2500 nM. Besides, in assay [2], the “inhibition effect on growth of tumor cells with abnormal expressions of EGFR, HER2/ERBB2, FGFR1, RAS, BRAF, cMET, and ALK genes” value was “no significant inhibition effect”.

As for `CC(C)(C)c1cc(NC(=O)Nc2ccc(-n3cnc4ccccc43)cc2)[nH]n1` [Compound 68, 1-(4-benzimidazol-1-yl-phenyl)-3-(5-tert-butyl-2H-pyrazol-3-yl)-urea], the GI50 in assay [1] is > 2500 nM. For the same molecule, the “inhibition effect on growth of tumor cells with abnormal expressions of EGFR, HER2/ERBB2, FGFR1, RAS, BRAF, cMET, and ALK genes” value in assay [2] is reported as “no significant inhibition effect”.

For the molecule `COc1ccc2c(c1)ncn2-c1ccc(NC(=O)Nc2cc(C(C)(C)C)n[nH]2)cc1` [Compound 71, 1-(5-tert-butyl-2H-pyrazol-3-yl)-3-[4-(5-methoxyl-benzimidazol-1-yl)-phenyl]-urea], the GI50 in assay [1] was > 2500 nM. Further, in assay [2], the “inhibition effect on growth of tumor cells with abnormal expressions of EGFR, HER2/ERBB2, FGFR1, RAS, BRAF, cMET, and ALK genes” value was “no significant inhibition effect”.

Consider `COCCOc1ccc2c(c1)ncn2-c1ccc(NC(=O)Nc2cc(C(C)(C)C)n[nH]2)cc1` [Compound 77, 1-(5-tert-butyl-2H-pyrazol-3-yl)-3-{4-[5-(2-methoxyl-ethoxyl)-benzimidazol-1-yl]-phenyl}-urea], for which the GI50 in assay [1] was > 2500 nM. In assay [2], the “inhibition effect on growth of tumor cells with abnormal expressions of EGFR, HER2/ERBB2, FGFR1, RAS, BRAF, cMET, and ALK genes” value was “no significant inhibition effect”.

As to `CC(C)(C)c1cc(NC(=O)Nc2ccc(-n3cnc4cc(OCCO)ccc43)cc2)[nH]n1` [Compound 79, 1-(5-tert-butyl-2H-pyrazol-3-yl)-3-{4-[5-(2-hydroxy-ethoxyl)-benzimidazol-1-yl]-phenyl]urea], the 50% growth inhibitory concentration (GI50) in assay [1] is > 2500 nM.

For the molecule `CC(C)(C)c1cc(NC(=O)Nc2ccc(-n3cnc4cc(OCCN5CCOCC5)ccc43)cc2)[nH]n1` [Compound 89, 1-(5-tert-butyl-2H-pyrazol-3-yl)-3-{4-[5-(2-morpholin-4-yl-ethoxyl)-benzimidazol-1-yl]-phenyl}-urea], the GI50 in assay [1] is > 2500 nM. Moreover, in assay [2], the “inhibition effect on growth of tumor cells with abnormal expressions of EGFR, HER2/ERBB2, FGFR1, RAS, BRAF, cMET, and ALK genes” value was “no significant inhibition effect”.

In the case of `CC(C)(C)c1cc(N)n(C(=O)Nc2ccc(-n3cnc4ccccc43)cc2)n1` [Compound 116, 5-amino-3-tert-butyl-pyrazol-1-carboxylic acid (4-benzimidazol-1-yl-phenyl)-amide], the concentration for 50% growth inhibition (GI50) in assay [1] is > 2500 nM. Moreover, in assay [2], the “inhibition effect on growth of tumor cells with abnormal expressions of EGFR, HER2/ERBB2, FGFR1, RAS, BRAF, cMET, and ALK genes” value was “no significant inhibition effect”.

The values above are taken from patent publication US10647680B2, “Urea compound, preparation method therefor and medical use thereof” (Ancureall Pharmaceutical (Shanghai) Co., Ltd., priority 2016, dated 2020).
